Laboratory results published in the supplement of paper PMC10307832.

How the values were obtained:
Assay in all cases: relative viability (nuclei count vs DMSO), 5 days (fraction); higher = more cells survive
[1] = compound: OCc1c[nH]c2ccccc12 [Indole-3-carbinol] + Cc1nc(Nc2ncc(C(=O)Nc3c(C)cccc3Cl)s2)cc(N2CCN(CCO)CC2)n1 [Dasatinib] (partner 0.075 µM)
In short: (§1)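 For relative viability, nuclei counts in treated wells were divided by those in vehicle wells. Lung cancer cell lines had been pin-tool dosed in 1536-well plates the day after seeding and cultured for 5 days, then fixed and stained in one step (final 0.05% Triton X-100, 1% formaldehyde, 1 ug/ml Hoechst) and imaged at 4×. Doses were one drug alone or a fixed anchor-drug dose plus five library-drug doses (not always all listed) in √10 steps, and values are duplicate-plate medians.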

[2] = compound: OCc1c[nH]c2ccccc12 [Indole-3-carbinol] + COc1cc2c(Oc3ccc(NC(=O)C4(C(=O)Nc5ccc(F)cc5)CC4)cc3F)ccnc2cc1OCCCN1CCOCC1 [Foretinib] (partner 0.25 µM)
In short: as §1

[3] = compound: OCc1c[nH]c2ccccc12 [Indole-3-carbinol] + O=C(c1cc(Cc2n[nH]c(=O)c3ccccc23)ccc1F)N1CCN(C(=O)C2CC2)CC1 [Olaparib] (partner 8 µM)
In short: as §1

[4] = compound: OCc1c[nH]c2ccccc12 [Indole-3-carbinol] + Nc1ncn([C@H]2C[C@H](O)[C@@H](CO)O2)c(=O)n1 [Decitabine] (partner 2 µM)
In short: as §1

[5] = compound: OCc1c[nH]c2ccccc12 [Indole-3-carbinol] + CC1(C)CCC(c2ccc(Cl)cc2)=C(CN2CCN(c3ccc(C(=O)NS(=O)(=O)c4ccc(N[C@H](CCN5CCOCC5)CSc5ccccc5)c(S(=O)(=O)C(F)(F)F)c4)cc3)CC2)C1 [Navitoclax] (partner 0.5 µM)
In short: as §1

NCI-H1915
relative viability ([1]; first compound 0.253 µM): 0.285 | relative viability ([1]; first compound 0.8 µM): 0.311 | relative viability ([1]; first compound 2.53 µM): 0.328 | relative viability ([1]; first compound 8 µM): 0.291 | relative viability ([2]; first compound 0.253 µM): 1.03 | relative viability ([2]; first compound 0.8 µM): 1.08 | relative viability ([2]; first compound 2.53 µM): 1.06 | relative viability ([2]; first compound 8 µM): 1.01 | relative viability ([3]; first compound 0.253 µM): 0.253 | relative viability ([3]; first compound 0.8 µM): 0.243 | relative viability ([3]; first compound 2.53 µM): 0.282 | relative viability ([3]; first compound 8 µM): 0.25 | relative viability ([4]; first compound 0.253 µM): 0.255 | relative viability ([4]; first compound 0.8 µM): 0.246 | relative viability ([4]; first compound 2.53 µM): 0.275 | relative viability ([4]; first compound 8 µM): 0.27 | relative viability ([5]; first compound 0.253 µM): 0.753 | relative viability ([5]; first compound 0.8 µM): 0.787 | relative viability ([5]; first compound 2.53 µM): 0.768 | relative viability ([5]; first compound 8 µM): 0.762

BEN
relative viability ([1]; first compound 0.253 µM): 0.334 | relative viability ([1]; first compound 0.8 µM): 0.351 | relative viability ([1]; first compound 2.53 µM): 0.318 | relative viability ([1]; first compound 8 µM): 0.294 | relative viability ([2]; first compound 0.253 µM): 0.566 | relative viability ([2]; first compound 0.8 µM): 0.501 | relative viability ([2]; first compound 2.53 µM): 0.651 | relative viability ([2]; first compound 8 µM): 0.624 | relative viability ([3]; first compound 0.253 µM): 1.09 | relative viability ([3]; first compound 0.8 µM): 1.05 | relative viability ([3]; first compound 2.53 µM): 1.12 | relative viability ([3]; first compound 8 µM): 1.06 | relative viability ([4]; first compound 0.253 µM): 0.689 | relative viability ([4]; first compound 0.8 µM): 0.784 | relative viability ([4]; first compound 2.53 µM): 0.726 | relative viability ([4]; first compound 8 µM): 0.749 | relative viability ([5]; first compound 0.253 µM): 0.0839 | relative viability ([5]; first compound 0.8 µM): 0.0691 | relative viability ([5]; first compound 2.53 µM): 0.0796 | relative viability ([5]; first compound 8 µM): 0.048

NCI-H2347
relative viability ([1]; first compound 0.253 µM): 0.303 | relative viability ([1]; first compound 0.8 µM): 0.26 | relative viability ([1]; first compound 2.53 µM): 0.313 | relative viability ([1]; first compound 8 µM): 0.344 | relative viability ([2]; first compound 0.253 µM): 0.743 | relative viability ([2]; first compound 2.53 µM): 1.21 | relative viability ([2]; first compound 8 µM): 0.931 | relative viability ([3]; first compound 0.253 µM): 0.624 | relative viability ([3]; first compound 0.8 µM): 0.582 | relative viability ([3]; first compound 2.53 µM): 0.634 | relative viability ([3]; first compound 8 µM): 0.549 | relative viability ([4]; first compound 0.253 µM): 0.678 | relative viability ([4]; first compound 0.8 µM): 0.58 | relative viability ([4]; first compound 2.53 µM): 0.509 | relative viability ([4]; first compound 8 µM): 0.574 | relative viability ([5]; first compound 0.253 µM): 0.765 | relative viability ([5]; first compound 0.8 µM): 0.782 | relative viability ([5]; first compound 2.53 µM): 0.814 | relative viability ([5]; first compound 8 µM): 0.699

H3255
relative viability ([1]; first compound 0.253 µM): 0.346 | relative viability ([1]; first compound 0.8 µM): 0.456 | relative viability ([1]; first compound 2.53 µM): 0.338 | relative viability ([1]; first compound 8 µM): 0.321 | relative viability ([2]; first compound 0.253 µM): 0.985 | relative viability ([2]; first compound 0.8 µM): 0.669 | relative viability ([2]; first compound 2.53 µM): 1.09 | relative viability ([2]; first compound 8 µM): 0.917 | relative viability ([3]; first compound 0.253 µM): 0.589 | relative viability ([3]; first compound 0.8 µM): 0.553 | relative viability ([3]; first compound 2.53 µM): 0.617 | relative viability ([3]; first compound 8 µM): 0.552 | relative viability ([4]; first compound 0.253 µM): 0.658 | relative viability ([4]; first compound 0.8 µM): 0.561 | relative viability ([4]; first compound 2.53 µM): 0.517 | relative viability ([4]; first compound 8 µM): 0.68 | relative viability ([5]; first compound 0.253 µM): 0.643 | relative viability ([5]; first compound 0.8 µM): 0.523 | relative viability ([5]; first compound 2.53 µM): 0.54 | relative viability ([5]; first compound 8 µM): 0.467

NCI-H441
relative viability ([1]; first compound 0.253 µM): 0.606 | relative viability ([1]; first compound 0.8 µM): 0.598 | relative viability ([1]; first compound 2.53 µM): 0.711 | relative viability ([1]; first compound 8 µM): 0.643 | relative viability ([2]; first compound 0.253 µM): 0.784 | relative viability ([2]; first compound 0.8 µM): 1.1 | relative viability ([2]; first compound 2.53 µM): 0.952 | relative viability ([2]; first compound 8 µM): 1.05 | relative viability ([3]; first compound 0.253 µM): 0.61 | relative viability ([3]; first compound 0.8 µM): 0.685 | relative viability ([3]; first compound 2.53 µM): 0.572 | relative viability ([3]; first compound 8 µM): 0.496 | relative viability ([4]; first compound 0.253 µM): 0.241 | relative viability ([4]; first compound 0.8 µM): 0.245 | relative viability ([4]; first compound 2.53 µM): 0.283 | relative viability ([4]; first compound 8 µM): 0.234 | relative viability ([5]; first compound 0.253 µM): 0.809 | relative viability ([5]; first compound 0.8 µM): 0.568 | relative viability ([5]; first compound 2.53 µM): 0.579 | relative viability ([5]; first compound 8 µM): 0.688

NCI-H1975
relative viability ([1]; first compound 0.253 µM): 0.376 | relative viability ([1]; first compound 0.8 µM): 0.426 | relative viability ([1]; first compound 2.53 µM): 0.329 | relative viability ([1]; first compound 8 µM): 0.35 | relative viability ([2]; first compound 0.253 µM): 0.888 | relative viability ([2]; first compound 0.8 µM): 0.977 | relative viability ([2]; first compound 2.53 µM): 1.01 | relative viability ([2]; first compound 8 µM): 0.873 | relative viability ([3]; first compound 0.253 µM): 0.801 | relative viability ([3]; first compound 0.8 µM): 0.847 | relative viability ([3]; first compound 2.53 µM): 0.822 | relative viability ([3]; first compound 8 µM): 0.77 | relative viability ([4]; first compound 0.253 µM): 0.392 | relative viability ([4]; first compound 0.8 µM): 0.38 | relative viability ([4]; first compound 2.53 µM): 0.415 | relative viability ([4]; first compound 8 µM): 0.436 | relative viability ([5]; first compound 0.253 µM): 1.14 | relative viability ([5]; first compound 0.8 µM): 1.27 | relative viability ([5]; first compound 2.53 µM): 1.11 | relative viability ([5]; first compound 8 µM): 1.08

NCI-H647
relative viability ([1]; first compound 0.253 µM): 0.18 | relative viability ([1]; first compound 2.53 µM): 0.222 | relative viability ([1]; first compound 8 µM): 0.167 | relative viability ([2]; first compound 0.253 µM): 1.22 | relative viability ([2]; first compound 2.53 µM): 1.22 | relative viability ([2]; first compound 8 µM): 1.01 | relative viability ([3]; first compound 0.253 µM): 0.578 | relative viability ([3]; first compound 0.8 µM): 0.735 | relative viability ([3]; first compound 2.53 µM): 0.693 | relative viability ([3]; first compound 8 µM): 0.409 | relative viability ([4]; first compound 0.253 µM): 0.417 | relative viability ([4]; first compound 0.8 µM): 0.438 | relative viability ([4]; first compound 2.53 µM): 0.455 | relative viability ([4]; first compound 8 µM): 0.354 | relative viability ([5]; first compound 0.253 µM): 1.16 | relative viability ([5]; first compound 2.53 µM): 1.09 | relative viability ([5]; first compound 8 µM): 1.01

A-427
relative viability ([1]; first compound 0.253 µM): 0.676 | relative viability ([1]; first compound 0.8 µM): 0.768 | relative viability ([1]; first compound 2.53 µM): 0.742 | relative viability ([1]; first compound 8 µM): 0.564 | relative viability ([2]; first compound 0.253 µM): 0.941 | relative viability ([2]; first compound 0.8 µM): 1.14 | relative viability ([2]; first compound 2.53 µM): 1.01 | relative viability ([2]; first compound 8 µM): 0.94 | relative viability ([3]; first compound 0.253 µM): 0.661 | relative viability ([3]; first compound 0.8 µM): 0.714 | relative viability ([3]; first compound 2.53 µM): 0.788 | relative viability ([3]; first compound 8 µM): 0.728 | relative viability ([4]; first compound 0.253 µM): 0.53 | relative viability ([4]; first compound 0.8 µM): 0.542 | relative viability ([4]; first compound 2.53 µM): 0.607 | relative viability ([4]; first compound 8 µM): 0.547 | relative viability ([5]; first compound 0.253 µM): 0.963 | relative viability ([5]; first compound 0.8 µM): 1.05 | relative viability ([5]; first compound 2.53 µM): 0.97 | relative viability ([5]; first compound 8 µM): 0.947
